Data as given in patent US7449495B2, “Retinoid derivatives with antiangiogenic, antitumoral and proapoptotic activities” (Sigma-Tau Industrie Farmaceutiche Riunite S.p.A., priority 2001, dated 2008).

Tests used:
[1] = test system: human no small cell lung carcinoma NCI-H460; experiment: Antitumoral activity in human no small cell lung carcinoma model NCI-H460; assay type: in vivo; conditions: NCI-H460, 15 mg/kg po
Experimental: The ST1926 solution was prepared immediately before use and solubilised in cremophor:ethanol 1:1 and subsequently diluted 1:4 in buffered saline solution. The animal treatments were administered in a volume of 10 ml/kg. […] Measurements of tumor dimensions were performed using a digital calliper (Vernier Caliper) twice weekly, from the time in which the mass was measurable. The tumor mass was evaluated from the size of the two principal dimensions (length and breadth), expressed in mm, applying the formula (length×breadth^2)/2, that is, the tumor volume in mm3. For each experimental group, the percentage of tumor volume inhibition was calculated (TVI %), with respect to the control, namely (100−(T/C %). TVI was evaluated 2 days after the final administration of ST1926.
A comparison between the TVI values obtained for each group was performed using the non parametric Mann Whitney test for non-paired data, using the Instat software from GraphPad inc.

[2] = test system: Human colon adenocarcinoma LoVo; experiment: Cytotoxicity test (sulphorodamine B), LoVo; assay type: cell-based; conditions: 24 h incubation, survival 48 h after removal, read-out: IC50
From the text: Different cell lines deriving from solid tumors were also used. • 1. Human prostate carcinoma PC3 and DU145. These cell lines were maintained in RPMI 1640 medium containing 10% FCS, 1% sodium pyruvate and 1% glutamine; • 2. Human colon adenocarcinoma LoVo. This cell line was maintained in HAM's F-12 medium, containing 10% FCS and 1% glutamine. • 3. Human ovarian carcinoma such as A2780 and A2780/Dx, sensitive and resistant to drugs, respectively (doxorubicin, taxol, etoposide, vincristine); IGROV-1 and IGROV-1/Pt, sensitive and resistant to platinum-based chemotherapy, respectively, were maintained in RPMI 1640 medium containing 10% FCS, 1% sodium pyruvate and 1% glutamine; • 4. Human melanoma MeWo and MeS 2.21, glioblastoma GBM, no small cell lung carcinomas A431, NCI—H460, osteosarcomas SAOS and U2OS were maintained in RPMI 1640 medium containing 10% FCS, 1% sodium pyruvate and 1% glutamine.
The cytotoxicity tests were carried out using NB4 or HL-60 cells in suspension (10000/well). The cells were seeded in a volume of 250 μl in 96 well plates and incubated for 24 hours at 37° C. […] The optical density was measured using a Multiskan spectrophotometer at 540 nm. […]
Cell survival was determined by incubation with ST1926 for 24 hours, 48 hours after the removal of the compound. […]

Structure (SMILES): O=C(O)/C=C/c1ccc(-c2ccc(O)c(C34CC5CC(CC(C5)C3)C4)c2)cc1 [ST1926, E-4-(3-(1-adamantyl)-4-hydroxyphenyl)cinnamic acid]
- BWL % Max ([1]; qdx3x3w): 4%
- Lethality ([1]; qdx3x3w): 0/8
- TVI % ± SE ([1]; qdx3x3w): *52 ± 7%
- BWL % Max ([1]; qdx4x3w): 14%
- Lethality ([1]; qdx4x3w): 0/8
- TVI % ± SE ([1]; qdx4x3w): **38 ± 8%
- BWL % Max ([1]; qdx5x3w): 4%
- Lethality ([1]; qdx5x3w): 0/8
- TVI % ± SE ([1]; qdx5x3w): *40 ± 2%
- IC50 [2]: 0.24 µM
